Reference: the NIST ThermoML archive (doi:10.1021/acs.jced.6b00516)

Assay: wn = mass fraction of the nth substance listed
Settings: 102 kPa, Liquid, Vibrating tube method

CCCCC1CCCCC1 [butylcyclohexane] + CCCCCCCCCCCCCCCC
mass density [kg/m3]
Settings | w1 = 0.1002 | w1 = 0.2 | w1 = 0.3001 | w1 = 0.3998 | w1 = 0.4998 | w1 = 0.6001 | w1 = 0.7 | w1 = 0.7999 | w1 = 0.8998
293.15 K | 775.85 | 778.23 | 780.67 | 783.16 | 785.72 | 788.34 | 791.01 | 793.72 | 796.48
303.15 K | 768.9 | 771.24 | 773.65 | 776.08 | 778.59 | 781.15 | 783.74 | 786.38 | 789.06
313.15 K | 761.94 | 764.25 | 766.6 | 768.99 | 771.43 | 773.92 | 776.44 | 779 | 781.6
323.15 K | 754.99 | 757.24 | 759.55 | 761.87 | 764.25 | 766.67 | 769.12 | 771.6 | 774.12
333.15 K | 748.02 | 750.22 | 752.47 | 754.73 | 757.04 | 759.39 | 761.76 | 764.16 | 766.6
343.15 K | 741.1 | 743.2 | 745.35 | 747.5 | 749.8 | 752.1 | 754.35 | 756.6 | 759
353.15 K | 734.1 | 736.1 | 738.3 | 740.3 | 742.5 | 744.7 | 746.9 | 749.1 | 751.4

CCCCC1CCCCC1 [butylcyclohexane] + Cc1ccccc1
mass density [kg/m3]
Settings | w1 = 0.1002 | w1 = 0.2175 | w1 = 0.3001 | w1 = 0.3999 | w1 = 0.5 | w1 = 0.6001 | w1 = 0.6995 | w1 = 0.8001 | w1 = 0.8996
293.15 K | 858.58 | 849.42 | 843.23 | 835.97 | 829.25 | 822.67 | 816.44 | 810.43 | 804.75
303.15 K | 849.47 | 840.53 | 834.5 | 827.42 | 820.88 | 814.48 | 808.43 | 802.58 | 797.08
313.15 K | 840.29 | 831.58 | 825.72 | 818.82 | 812.46 | 806.25 | 800.37 | 794.7 | 789.37
323.15 K | 831.04 | 822.57 | 816.86 | 810.17 | 803.99 | 797.96 | 792.27 | 786.78 | 781.62
333.15 K | 821.72 | 813.48 | 807.94 | 801.44 | 795.45 | 789.62 | 784.11 | 778.81 | 773.83
343.15 K | 812.2 | 804.3 | 798.8 | 792.6 | 786.8 | 781.3 | 775.9 | 770.7 | 765.9
353.15 K | 802.7 | 795.1 | 789.7 | 783.7 | 778.1 | 772.8 | 767.5 | 762.6 | 758
